Data published in patent publication US10947188B2, “Small molecule ferroptosis inducers” (THE TRUSTEES OF COLUMBIA UNIVERSITY IN THE CITY OF NEW YORK, priority 2016, dated 2021).
Where a SMILES comes first, the peptide text is derived from it. The star is where a group is joined. Cbz = O=C(OCc1ccccc1)*

Tested on: BJeLR
Experiment: Modulatory profiling: Alamar Blue viability, lethal compound cotreated with death modulator (EC50, AUC)
Format: cell-based, human
Design: AUC, modulator BJ.Gd3+ / AUC, modulator BJ.LNAME / AUC, modulator BJ.Lmin / AUC, modulator BJ.3MA / AUC, modulator BJ.ALLN / AUC, modulator BJ.Boc D / AUC, modulator BJ.CHX / AUC, modulator BJ.Co2+ / AUC, modulator BJ.Nec-1 / AUC, modulator BJ.Pepstatin / AUC, modulator BJ.TLCK / AUC, modulator BJ.atoc / AUC, modulator BJ.trolox / AUC, modulator BJ.zVAD: unit not given beside the values
Details: BJeLR cells, modulatory profile value (AUC); for AUC, modulator BJ.3MA: lethal compound cotreated with modulator 3MA; for AUC, modulator BJ.ALLN: lethal compound cotreated with modulator ALLN; for AUC, modulator BJ.Boc D: lethal compound cotreated with modulator Boc D; for AUC, modulator BJ.CHX: lethal compound cotreated with modulator CHX; for AUC, modulator BJ.Co2+: lethal compound cotreated with modulator Co2+; for AUC, modulator BJ.DPQ: lethal compound cotreated with modulator DPQ; for AUC, modulator BJ.Gd3+: lethal compound cotreated with modulator Gd3+; for AUC, modulator BJ.LNAME: lethal compound cotreated with modulator LNAME; for AUC, modulator BJ.Lmin/NAD+: lethal compound cotreated with modulator Lmin/NAD+; for AUC, modulator BJ.Lmin: lethal compound cotreated with modulator Lmin; for AUC, modulator BJ.NAD+: lethal compound cotreated with modulator NAD+; for AUC, modulator BJ.NMMA: lethal compound cotreated with modulator NMMA; for AUC, modulator BJ.Nec-1: lethal compound cotreated with modulator Nec-1; for AUC, modulator BJ.Pepstatin: lethal compound cotreated with modulator Pepstatin; for AUC, modulator BJ.TLCK: lethal compound cotreated with modulator TLCK; for AUC, modulator BJ.atoc: lethal compound cotreated with modulator atoc; for AUC, modulator BJ.trolox: lethal compound cotreated with modulator trolox; for AUC, modulator BJ.zVAD: lethal compound cotreated with modulator zVAD

SMILES | AUC, modulator BJ.3MA | AUC, modulator BJ.ALLN | AUC, modulator BJ.Boc D | AUC, modulator BJ.CHX | AUC, modulator BJ.Co2+ | AUC, modulator BJ.DPQ | AUC, modulator BJ.Gd3+ | AUC, modulator BJ.LNAME | AUC, modulator BJ.Lmin/NAD+ | AUC, modulator BJ.Lmin | AUC, modulator BJ.NAD+ | AUC, modulator BJ.NMMA | AUC, modulator BJ.Nec-1 | AUC, modulator BJ.Pepstatin | AUC, modulator BJ.TLCK | AUC, modulator BJ.atoc | AUC, modulator BJ.trolox | AUC, modulator BJ.zVAD
COc1ccc(N(C(=O)CCl)C(C(=O)NCCc2ccccc2)c2cccs2)cc1 (stereo not drawn) [DPI4] | 0.0813 | −0.07596 | −0.0206 | −0.04482 | 0.116 | 0.02148 | 0.06864 | 0.00317 | 0.1443 | 0.1443 | 0.03153 | 0.004961 | 0.1295 | 0.03966 | 0.1612 | 0.2611 | 0.2547 | −0.02179
CS[C@H]1SC[C@H]2C(=O)N(C)[C@@H](C(C)C)C(=O)OC[C@@H](NC(=O)c3cnc4ccccc4n3)C(=O)N[C@@H](C)C(=O)N(C)[C@@H]1C(=O)N(C)[C@@H](C(C)C)C(=O)OC[C@@H](NC(=O)c1cnc3ccccc3n1)C(=O)N[C@@H](C)C(=O)N2C [Echinomycin] | 0.3457 | 0.02426 | 0.04925 | 0.2015 | 0.09321 | −0.004325 | 0.002041 | 0.01199 | 0.2351 | 0.1205 | 0.2292 | 0.01082 | −0.01901 | −0.004369 | −0.001724 | 0.1681 | −0.04322 | 0.005973
COc1cc([C@@H]2c3cc4c(cc3[C@@H](O[C@@H]3O[C@@H]5CO[C@@H](C)O[C@H]5[C@H](O)[C@H]3O)[C@H]3COC(=O)[C@H]23)OCO4)cc(OC)c1O [Etoposide] | −0.06196 | 0.06099 | 0.0612 | 0.1255 | 0.0951 | −0.0469 | 0.01317 | 0.004515 | 0.1011 | 0.04682 | 0.08359 | −0.03678 | −0.04354 | 0.01632 | 0.01399 | −0.01038 | −0.01808 | 0.06084
CC(C)C[C@@H](C=O)NC(=O)[C@H](CC(C)C)NC(=O)[C@H](CC(C)C)NC(=O)OCc1ccccc1 [MG132, reference compound] (Cbz-Leu-Leu-Leu-aldehyde) | −0.04346 | −0.2701 | 0.04216 | 0.2476 | 0.1849 | −0.01327 | 0.03163 | 0.01789 | 0.2064 | 0.1487 | 0.04274 | 0.02073 | −0.0504 | −0.02291 | 0.1241 | −0.002326 | −0.01449 | −0.08452
Nc1ccccc1NC(=O)c1ccc(CNC(=O)OCc2cccnc2)cc1 [MS275] | −0.02606 | −0.03932 | 0.08944 | 0.2266 | 0.2326 | −0.009656 | 0.023 | 0.02321 | 0.1569 | −0.001183 | 0.1269 | −0.003779 | −0.01329 | −0.01824 | 0.08474 | −0.008452 | −0.001137 | 0.1415
O=C1c2c(O)ccc(O)c2C(=O)c2c(NCCNCCO)ccc(NCCNCCO)c21 [Mitoxantrone] | 0.03352 | 0.06204 | 0.03746 | 0.1437 | 0.4538 | −0.05814 | 0.01069 | 0.007578 | 0.1162 | 0.04368 | 0.08733 | 0.004431 | −0.03038 | 0.003263 | 0.02288 | 0.02585 | −0.01862 | 0.0497
[N-]=[N+]=[N-].[Na+] [NaN3] | −0.09559 | −0.00382 | −0.007273 | 0.07262 | −0.02123 | −0.06947 | 0.01113 | −0.01832 | −0.007837 | −0.08417 | 0.0696 | 0.005874 | −0.05229 | 0.01611 | 0.032 | −0.005135 | −0.03837 | −0.001065
COc1cc([C@@H]2c3cc4c(cc3[C@H](O)[C@H]3COC(=O)[C@H]23)OCO4)cc(OC)c1OC [Podophyllotoxin] | −0.01267 | −0.003673 | 0.003542 | 0.1228 | 0.09497 | −0.03896 | 0.01784 | 0.005868 | 0.1012 | 0.05457 | 0.09627 | −0.007043 | −0.04167 | 0.02214 | −0.02042 | 0.007072 | −0.01282 | 0.0496
C=C(C)[C@H]1Cc2c(ccc3c2O[C@@H]2COc4cc(OC)c(OC)cc4[C@@H]2C3=O)O1 [Rotenone] | −0.0266 | −0.03435 | −0.01674 | 0.1066 | 0.0838 | −0.02278 | 0.01421 | −0.01131 | 0.1439 | 0.06492 | 0.1037 | 0.005801 | −0.02888 | 0.02007 | −0.02169 | 0.05116 | −0.01075 | 0.04408
O=C(CCCCCN1C(=O)c2cccc3cccc(c23)C1=O)NO [Scriptaid] | −0.0206 | −0.07856 | 0.03167 | 0.2681 | 0.2406 | 0.004892 | 0.0289 | 0.03611 | 0.2114 | 0.1113 | 0.1384 | 0.02102 | 0.02804 | −0.0282 | 0.07545 | −0.005396 | −0.0185 | 0.1205
CC(C)[C@@H]1NC(=O)[C@H](C)OC(=O)[C@@H](C(C)C)NC(=O)[C@@H](C(C)C)OC(=O)[C@H](C(C)C)NC(=O)[C@H](C)OC(=O)[C@@H](C(C)C)NC(=O)[C@@H](C(C)C)OC(=O)[C@H](C(C)C)NC(=O)[C@H](C)OC(=O)[C@@H](C(C)C)NC(=O)[C@@H](C(C)C)OC1=O [Vatinomycin] | 0.03326 | 0.02063 | 0.02046 | 0.3573 | 0.09595 | −0.02201 | −0.0004394 | −0.01323 | 0.1525 | −0.007847 | 0.1101 | −0.02634 | 0.01734 | 0.04946 | 0.006602 | 0.285 | 0.06867 | 0.03769
CC[C@]1(O)C[C@@H]2CN(CCc3c([nH]c4ccccc34)[C@@](C(=O)OC)(c3cc4c(cc3OC)N(C)[C@H]3[C@@](O)(C(=O)OC)[C@H](OC(C)=O)[C@]5(CC)C=CCN6CC[C@]43[C@@H]65)C2)C1 [Vinbiastine] | 0.0131 | −0.07228 | 0.001717 | 0.2328 | 0.1876 | −0.0312 | 0.008351 | −0.0006349 | 0.1715 | 0.06584 | 0.1373 | 0.008107 | −0.06176 | 0.002398 | −0.003672 | 0.1487 | −0.01145 | 0.01552
